Results on two molecules are retold here after US20260151441A1, “NOVEL USE OF LACTOBACILLUS DELBRUECKII SUBSP. LACTIS STRAIN” (CKD BIO CORPORATION, priority 2022, published 2026).

The nature of assay [1]: Y-maze test in scopolamine-induced cognitive impairment animal model. Format: in vivo. The note with it: 5 mg/kg. On the procedure:
The Y-maze test is used to assess short-term memory and momentary spatial perception by evaluating the animal's ability to remember the previously explored arm, with higher memory performance indicated by a lower tendency to re-enter the same arm.
Specifically, scopolamine, which induces memory impairment, was administered together with either saline (vehicle), a known treatment for cognitive impairment or AD (donepezil or decursin), or the strain of the present invention, followed by the Y-maze test.
The Y-maze consists of three arms with dimensions of 40 cm in length, 3 cm in width, and 15 cm in height, with the angles between the arms set at 120°. […]
The control and experimental groups were placed at the center of the Y-maze, where they were allowed to explore the maze for 8 minutes. The movement of each individual was analyzed using EthoVision XT16 (Noldus, USA). The experimental results were obtained as spontaneous alternation behavior (%) and calculated according to the following equation: […]

The nature of assay [2]: Passive avoidance test in scopolamine-induced cognitive impairment animal model. The note with it: 5 mg/kg, 24 h after shock. Format: in vivo, rodents. The source says:
The passive avoidance test is a cognitive ability assessment experiment that utilizes the preference of rodents to stay in dark places.
Specifically, saline (as a vehicle), donepezil (a therapeutic agent for cognitive impairment or AD), decursin (a functional ingredient recognized for improving cognitive function), or the strain of the present invention was co-administered with scopolamine which induces memory impairment, followed by the passive avoidance test. […]
The control and experimental groups were placed in chambers consisting of a bright chamber and a dark chamber of the same size. […] After 24 hours, the animals were again placed in the bright chamber, and the time taken to enter the dark chamber was measured for up to 300 seconds to evaluate memory.

For the molecule `CC(C)=CC(=O)O[C@H]1Cc2cc3ccc(=O)oc3cc2OC1(C)C` [decursin], in assay [1], the “increase in spontaneous alternation behavior compared to vehicle-treated group (G2)” value is approximately 1.3 fold. For the same molecule, the memory recovery result in assay [2] was “about 87%”.
For `COc1cc2c(cc1OC)C(=O)C(CC1CCN(Cc3ccccc3)CC1)C2` (stereo not shown) [donepezil], the “increase in spontaneous alternation behavior compared to vehicle-treated group (G2)” value in assay [1] was approximately 1.3 fold. In addition, the memory recovery result in assay [2] is “about 74%”.
